Results published in US6444706B2, “Guanidine derivatives, processes for preparing them and their use as pharmaceutical compositions” (priority 1996, dated 2002).

What was measured:
herpes virus = assay: Virus replication in infected cell cultures, plaque assay of supernatant; format: cell-based; conditions: Fibroblast, herpes-infected monkey kidney cells or human fibroblasts, 24 hours, read-out: IC50 (concentration at which virus replication is inhibited by 50%)
Experimental: The virostatic properties were determined by in vitro tests. The following virus strains were used:
Cell cultures (monkey kidney cells or human fibroblasts) are infected with herpes and a series of cultures are exposed to medium containing various concentrations of the test substance. After 24 hours the concentration of the virus descendants in the cell culture supernatant is determined by plaque assays.

[1] = target: T1, neutral SMase (membrane fraction isolated from mice brains) (Mus musculus, UniProt Q9JJY3); assay: Inhibition of neutral SMase (14C sphingomyelin hydrolysis); format: biochemical; conditions: 2 h, pH 7.5, read-out: nSMase activity
T1 construct: membrane fraction isolated from mice brains, 10 μg of protein/mixture [according to S. Gatt, Biochem. Biophys; Res. Commun; 68, 235-241 (1976)]
T1 sequence (Q9JJY3 1-655): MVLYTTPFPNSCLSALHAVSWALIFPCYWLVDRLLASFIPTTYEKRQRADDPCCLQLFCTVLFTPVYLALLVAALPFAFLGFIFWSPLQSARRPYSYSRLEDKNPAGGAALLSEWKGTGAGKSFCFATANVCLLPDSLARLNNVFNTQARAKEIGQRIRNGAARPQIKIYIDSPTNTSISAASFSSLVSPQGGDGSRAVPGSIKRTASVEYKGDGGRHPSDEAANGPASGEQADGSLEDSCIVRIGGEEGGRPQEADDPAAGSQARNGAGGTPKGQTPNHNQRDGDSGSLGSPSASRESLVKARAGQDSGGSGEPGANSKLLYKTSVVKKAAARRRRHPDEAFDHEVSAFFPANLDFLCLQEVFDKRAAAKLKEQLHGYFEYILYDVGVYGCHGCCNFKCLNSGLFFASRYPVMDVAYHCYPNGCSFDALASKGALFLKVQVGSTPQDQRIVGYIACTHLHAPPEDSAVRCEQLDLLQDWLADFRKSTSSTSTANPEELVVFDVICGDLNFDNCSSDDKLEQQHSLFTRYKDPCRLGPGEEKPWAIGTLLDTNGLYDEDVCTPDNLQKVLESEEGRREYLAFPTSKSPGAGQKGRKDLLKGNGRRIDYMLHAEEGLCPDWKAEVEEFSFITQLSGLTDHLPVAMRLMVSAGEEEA
Experimental: Then the samples were extracted with 5 times the volume of chloroform/methanol (1:1) and the content of radioactive phosphorylcholine in the aqueous phase was determined. The release of phosphorylcholine in the untreated mixtures corresponds to 100% enzyme activity.
The release of phosphorylcholine in the untreated batches corresponds to 100%.

[2] = system: acidic SMase (microsome fraction from macrophage); assay: Inhibition of acidic SMase (14C sphingomyelin hydrolysis); format: biochemical; conditions: pH 5.6, untreated = 100%
Experimental: ^14C sphingomyelin (10 μg/ml) were incubated with neutral SMase (membrane fraction isolated from mouse brains, 10 μg protein/mixture, according to Gatt, S. Biochem. Biophys. Res. Commun. 68, 235-241, 1976) or with acidic SMase (microsome fraction from macrophage 5 μg of protein/mixture isolated according to Gatt, S. Biochem. Biophys. Res. Commun. 68, 235-241, 1976) in the presence of various concentrations of the test substances, for 2 hours at 37° C. in 20 mM Tris, 1 mM MgCl2, pH 7.5 (neutral SMase) or in 50 mM sodium acetate, 1 mM MgCl2, pH 5.6 (acid SMase). Then the samples were extracted with 5 times the volume of chloroform/methanol (1:1) and the content of radioactive phosphorylcholine in the aqueous phase was determined. The release of phosphorylcholine in the untreated mixtures corresponds to 100% enzyme activity.
^14C-sphingomyelin (10 μg/ml) was incubated with neutral SMase (membrane fraction from mouse brain, 10 μg of protein/batch, isolated according to Gatt, S. Biochem. Biophys. Res. Commun. 68, 235-241, 1976) or with acid SMase (microsome fraction from macrophages 5 μg of protein per batch [isolated according to S. Gatt, Biochem. Biophys. Res. Commun. 68, 235-241, (1976)] in the presence of various concentrations of the test substances for 2 hours at 37° C. in 20 mM Tris, 1 mM MgCl2, pH 7.5 (neutral SMase) or in 50 mM sodium acetate, 1 mM MgCl2, pH 5.6 (acidic SMase). Then the samples were extracted with 5 times the volume of chloroform/methanol (1:1) and the content of radioactive phosphorylcholine in the aqueous phase was determined. The release of phosphorylcholine in the untreated batches corresponds to 100%.

[3] = system: endotoxin from E. coli (endotoxic shock); assay: Protection from endotoxic shock by C11AG in mice; format: in vivo, mice (strain NMRI/Nu); conditions: 50 mg/kg subcutaneously 30 minutes before 0.2 mg endotoxin i.p.; nine animals; all 10 controls died within 24 hours
Experimental: Mice (strain NMRI/Nu, 8 weeks old, female) were each given 0.2 mg of endotoxin from E. coli (Sigma, Munich) by intraperitoneal route. The 10 control animals, who had been given 0.2 ml of 5% glucose subcutaneously, died within 24 hours. Nine animals were injected subcutaneously with 50 mg/kg of C11AG 30 minutes before the endotoxin treatment. Of this group, only 2 animals died.

[4] = system: collagen-induced arthritis; assay: Inhibition of collagen-induced arthritis in the mouse; format: in vivo, DBA/I mice; conditions: for Total Symptoms: day 7 after booster injection, 10 animals
Experimental: An autoimmune reaction against cartilagenous tissue was produced by injecting collagen into DBA/I mice as described (Holmdahl, R. et al., Immunology, 65, 305-310, 1988). Groups of 10 animals were used as control or were given 50 mg/kg or 100 mg/kg of C11AG per day by oral route. The drug was administered in the food (Altromin, powdered food) and the dosage was calculated from the daily food intake. The symptoms were evaluated daily for each individual paw from 0.5-3 as described [R. Holmdahl, et al., Immunology, 65, 305-310, (1988)].
20 days after the booster injection the animals were killed and the joints were examined by histopathology resulting in the following picture: […]

[5] = system: RAW cells (mouse macrophage line); assay: Inhibition of NO-synthase induction in macrophages (nitrite in culture medium); format: cell-based; conditions: 10 ng/ml LPS, 16 hours, without C11AG 0.122
Experimental: RAW cells (mouse macrophage line, origin: American Type Culture Collection) were treated with 10 ng/ml of endotoxin from E. coli (LPS) in the presence of different concentrations of C11AG. After 16 hours the nitrite content in the culture medium was measured using the method described [K. Tschaikowsky, M. Meisner, F. Schonhuber and E. Rugheimer, Br. J. Pharmacol. 113 (3): 664-8 (1994)].
The inhibition of NO-synthase induction is graphically shown in FIG. 3; the NO2 concentration [OD measured at 540 nm] is plotted against the C11AG concentration [μg/ml] for 10 ng/ml of LPS.

[6] = system: endotoxin from E. coli (lethal endotoxic shock); assay: Prevention of lethal endotoxic shock in the mouse by H2C11AG; format: in vivo, mice of the Balb C strain; conditions: 100 mg/kg by oesophageal tube 2 hours before 0.7 mg endotoxin i.p., 10 animals, observed 12 days
Experimental: 10 mice of the Balb C strain (about 8 weeks old) were given 0.7 mg of endotoxin from E. coli (in 0.2 ml of isotonic saline solution) by intraperitoneal injection. 10 animals were given 100 mg/kg of H2C11AG (dissolved in twice distilled water) by oesphageal tube 2 hours before the LPS treatment. The control animals were given water.

`N=C(N)NN=Cc1c2ccccc2cc2ccccc12` [1-(Anthracen-9-ylmethylene-amino)guanidine] was tested, and the IC50 (herpes virus) was 1.5 µM.
Compound `CCCCCCCCCC=NNC(=N)N` [1-(decylidene-amino)guanidine] has an IC50 (herpes virus) of 28.9 µM.
Work on `CCCCCCCCCCCC=NNC(=N)N` [1-(dodecylideneamino)guanidine] yielded an IC50 (herpes virus) of 3.2 µM.
Compound `N=C(N)NN=Cc1c[nH]c2ccccc12` [1-(indol-3-ylmethylene-amino)guanidine, 1-(Indol-3-ylmethylene-amino)guanidine] has an IC50 (herpes virus) of 19.8 µM.
In the case of `CCCCCCCCC=NNC(=N)N` [1-(nonylidene-amino)guanidine], the IC50 (herpes virus) is reported as 29 µM.
`CCCCCCCC=NNC(=N)N` [1-(octylidene-amino)guanidine] was tested, and the IC50 (herpes virus) was 49.7 µM.
`N=C(N)NN=C1C=Cc2cccc3cccc1c23` [1-(phenalen-1-ylidene-amino)guanidine, 1-(Phenalen-1-ylidene-amino)guanidine] showed an IC50 (herpes virus) of 45.4 µM.
In the case of `CCCCCCCCCCC=NNC(=N)N` [C11AG, 1-(undecylideneamino)guanidine], the activity at 1 µg/mL [1] is reported as 61%, the activity at 10 µg/mL [1] is reported as 18% and the activity at 100 µg/mL [1] is reported as 0%. For the same compound, the aSMase activity ([2]; 1 μg/ml) was 101%, the aSMase activity ([2]; 10 μg/ml) was 102% and the aSMase activity ([2]; 100 μg/ml) was 31%. For the same compound, the IC50 (herpes virus) was 6.8 µM, the animals died [3] was 2 and the “Total Symptoms” value ([4]; 50 mg/kg per day oral in food) was 4.5. For the same compound, the “Total Symptoms” value ([4]; 100 mg/kg per day oral in food) was 1, the “histopathology of joints (inflammatory processes)” value ([4]; 50 and 100 mg/kg, 20 days after booster injection) was “no such inflammatory processes could be detected” and the “OD 540 nm (nitrite content in culture medium)” value (“OD 540 nm” for short) ([5]; 0.5 μg/ml C11AG) was 0.091. For the same compound, the “OD 540 nm” value ([5]; 1 μg/ml C11AG) was 0.075, the “OD 540 nm” value ([5]; 2 μg/ml C11AG) was 0.054 and the “OD 540 nm” value ([5]; 3 μg/ml C11AG) was 0.05. For the same compound, the “OD 540 nm” value ([5]; 4 μg/ml C11AG) was 0.038.
`CCCCCCCCCCCNNC(=N)N` [H2C11AG, 1-(undecylamino) guanidine] was tested, and the survivors ([6]; control 2 survivors) was 9, the “survivors (%)” value ([6]; control 20%) was 90% and the activity at 1 µg/mL [1] was 73%. The activity at 10 µg/mL [1] was 22%, the activity at 100 µg/mL [1] was 2% and the aSMase activity ([2]; 1 μg/ml) was 100%. The aSMase activity ([2]; 10 μg/ml) was 97% and the aSMase activity ([2]; 100 μg/ml) was 32%.
